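1) Cells in 96-well plates. 2) Compound, 48 h, 5 concentrations. 3) Linear interpolation between surrounding doses. 4) Unreached endpoint = highest concentration. The concentration for full growth arrest is given as TGI.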
Assays:
Assay in all cases: DTP human tumour cell line panel, 48 h
786-0 renal = system: 786-0 renal
A498 renal = system: A498 renal
A549 NSCLC = system: A549 NSCLC
ACHN renal = system: ACHN renal
CCRF-CEM leukemia = system: CCRF-CEM leukemia
COLO 205 colon = system: COLO 205 colon
DU-145 prostate = system: DU-145 prostate
EKVX NSCLC = system: EKVX NSCLC
HCC-2998 colon = system: HCC-2998 colon
HCT-116 colon = system: HCT-116 colon
HCT-15 colon = system: HCT-15 colon
HL-60(TB) leukemia = system: HL-60(TB) leukemia
HOP-62 NSCLC = system: HOP-62 NSCLC
HOP-92 NSCLC = system: HOP-92 NSCLC
HS 578T breast = system: HS 578T breast
HT29 colon = system: HT29 colon
K-562 leukemia = system: K-562 leukemia
KM12 colon = system: KM12 colon
LOX IMVI melanoma = system: LOX IMVI melanoma
M14 melanoma = system: M14 melanoma
MALME-3M melanoma = system: MALME-3M melanoma
MCF7 breast = system: MCF7 breast
MDA-MB-231 breast = system: MDA-MB-231 breast
MDA-MB-435 = system: MDA-MB-435
MDA-N = system: MDA-N
MOLT-4 leukemia = system: MOLT-4 leukemia
NCI-H226 lung = system: NCI-H226 lung
NCI-H23 lung = system: NCI-H23 lung
NCI-H460 lung = system: NCI-H460 lung
NCI/ADR-RES ovarian = system: NCI/ADR-RES ovarian
OVCAR-3 ovarian = system: OVCAR-3 ovarian
OVCAR-4 ovarian = system: OVCAR-4 ovarian
OVCAR-5 ovarian = system: OVCAR-5 ovarian
OVCAR-8 ovarian = system: OVCAR-8 ovarian
PC-3 prostate = system: PC-3 prostate
RPMI-8226 leukemia = system: RPMI-8226 leukemia
SF-268 CNS = system: SF-268 CNS
SF-295 CNS = system: SF-295 CNS
SF-539 CNS = system: SF-539 CNS
SK-MEL-2 melanoma = system: SK-MEL-2 melanoma
SK-MEL-28 melanoma = system: SK-MEL-28 melanoma
SK-MEL-5 melanoma = system: SK-MEL-5 melanoma
SK-OV-3 ovarian = system: SK-OV-3 ovarian
SN12C renal = system: SN12C renal
SNB-19 CNS = system: SNB-19 CNS
SNB-75 CNS = system: SNB-75 CNS
SR leukemia = system: SR leukemia
SW-620 colon = system: SW-620 colon
T-47D breast = system: T-47D breast
TK-10 renal = system: TK-10 renal
U251 CNS = system: U251 CNS
UACC-257 melanoma = system: UACC-257 melanoma
UACC-62 melanoma = system: UACC-62 melanoma
UO-31 renal = system: UO-31 renal

**Q.** How did the TGI (786-0 renal) turn out when `O=C1C(c2ccccc2)=[N+]([O-])c2ccccc21` was run?
**A.** 34.1 µM

**Q.** What about the TGI (A498 renal) of the same molecule?
**A.** 34 µM

**Q.** What about the TGI (A549 NSCLC) of the same molecule?
**A.** 48.7 µM

**Q.** And the TGI (ACHN renal)?
**A.** 33.6 µM

**Q.** And the TGI (CCRF-CEM leukemia)?
**A.** > 100 µM

**Q.** What about the TGI (COLO 205 colon) of the same molecule?
**A.** 29.7 µM

**Q.** And the TGI (DU-145 prostate)?
**A.** 32.4 µM

**Q.** And the TGI (EKVX NSCLC)?
**A.** 35.4 µM

**Q.** And the TGI (HCC-2998 colon)?
**A.** 38.8 µM

**Q.** And the TGI (HCT-116 colon)?
**A.** > 100 µM

**Q.** What about the TGI (HCT-15 colon) of the same molecule?
**A.** 37.9 µM

**Q.** What about the TGI (HL-60(TB) leukemia) of the same molecule?
**A.** 42.2 µM

**Q.** What about the TGI (HOP-62 NSCLC) of the same molecule?
**A.** 37.4 µM

**Q.** And the TGI (HOP-92 NSCLC)?
**A.** 20.7 µM

**Q.** And the TGI (HS 578T breast)?
**A.** 82.9 µM

**Q.** What about the TGI (HT29 colon) of the same molecule?
**A.** 42.1 µM

**Q.** And the TGI (K-562 leukemia)?
**A.** 8.34 µM

**Q.** What about the TGI (KM12 colon) of the same molecule?
**A.** 55.2 µM

**Q.** And the TGI (LOX IMVI melanoma)?
**A.** 14.2 µM

**Q.** What about the TGI (M14 melanoma) of the same molecule?
**A.** 27 µM

**Q.** What about the TGI (MALME-3M melanoma) of the same molecule?
**A.** 38.5 µM

**Q.** And the TGI (MCF7 breast)?
**A.** 4.88 µM

**Q.** And the TGI (MDA-MB-231 breast)?
**A.** 25.4 µM

**Q.** And the TGI (MDA-MB-435)?
**A.** 11.2 µM

**Q.** What about the TGI (MDA-N) of the same molecule?
**A.** 12.8 µM

**Q.** What about the TGI (MOLT-4 leukemia) of the same molecule?
**A.** 47.2 µM

**Q.** And the TGI (NCI-H226 lung)?
**A.** 37.8 µM

**Q.** And the TGI (NCI-H23 lung)?
**A.** 36.6 µM

**Q.** What about the TGI (NCI-H460 lung) of the same molecule?
**A.** 32.7 µM

**Q.** What about the TGI (NCI/ADR-RES ovarian) of the same molecule?
**A.** 36.3 µM

**Q.** What about the TGI (OVCAR-3 ovarian) of the same molecule?
**A.** 29.1 µM

**Q.** And the TGI (OVCAR-4 ovarian)?
**A.** 15.3 µM

**Q.** What about the TGI (OVCAR-5 ovarian) of the same molecule?
**A.** 43.1 µM

**Q.** What about the TGI (OVCAR-8 ovarian) of the same molecule?
**A.** 32.6 µM

**Q.** What about the TGI (PC-3 prostate) of the same molecule?
**A.** 27.3 µM

**Q.** And the TGI (RPMI-8226 leukemia)?
**A.** 56.9 µM

**Q.** And the TGI (SF-268 CNS)?
**A.** 27.4 µM

**Q.** And the TGI (SF-295 CNS)?
**A.** 32.6 µM

**Q.** What about the TGI (SF-539 CNS) of the same molecule?
**A.** 32.8 µM

**Q.** And the TGI (SK-MEL-2 melanoma)?
**A.** 28.3 µM

**Q.** What about the TGI (SK-MEL-28 melanoma) of the same molecule?
**A.** 33.2 µM

**Q.** What about the TGI (SK-MEL-5 melanoma) of the same molecule?
**A.** 23.3 µM

**Q.** And the TGI (SK-OV-3 ovarian)?
**A.** 31.4 µM

**Q.** What about the TGI (SN12C renal) of the same molecule?
**A.** 34.2 µM

**Q.** And the TGI (SNB-19 CNS)?
**A.** 37.5 µM

**Q.** And the TGI (SNB-75 CNS)?
**A.** 37.5 µM

**Q.** What about the TGI (SR leukemia) of the same molecule?
**A.** 23.5 µM

**Q.** And the TGI (SW-620 colon)?
**A.** 22.3 µM

**Q.** What about the TGI (T-47D breast) of the same molecule?
**A.** 7.25 µM

**Q.** And the TGI (TK-10 renal)?
**A.** 37.4 µM

**Q.** What about the TGI (U251 CNS) of the same molecule?
**A.** 28.7 µM

**Q.** What about the TGI (UACC-257 melanoma) of the same molecule?
**A.** 26.1 µM

**Q.** And the TGI (UACC-62 melanoma)?
**A.** 29.5 µM

**Q.** What about the TGI (UO-31 renal) of the same molecule?
**A.** 29.7 µM

From PubChem BioAssay (NCI)
